Assay results: patent US11697648B2, “Fused pyrimidine pyridinone compounds as JAK inhibitors” (THERAVANCE BIOPHARMA R&D IP, LLC, priority 2019, dated 2023)

Columns and labels:
Tyk2 = Tyk2 (Homo sapiens (Human), UniProt P29597); assay: Biochemical Tyk2 kinase assay (LanthaScreen)
Method in brief: (§1)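 GST-JAK + GFP-STAT1 peptide, HEPES pH 7.5/MgCl2/EGTA/Brij-35 buffer; cpd preincubation 1 h RT; ATP start, 1 h RT; stop with 10 mM EDTA + 2 nM Tb-anti-pSTAT1; TR-FRET 520/495. 4-parameter IC50 → pKi (Cheng-Prusoff).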

JAK1 = JAK1 (Homo sapiens (Human), UniProt P23458); assay: Biochemical JAK1 kinase assay (LanthaScreen)
JAK1, sequence (P23458 whole entry): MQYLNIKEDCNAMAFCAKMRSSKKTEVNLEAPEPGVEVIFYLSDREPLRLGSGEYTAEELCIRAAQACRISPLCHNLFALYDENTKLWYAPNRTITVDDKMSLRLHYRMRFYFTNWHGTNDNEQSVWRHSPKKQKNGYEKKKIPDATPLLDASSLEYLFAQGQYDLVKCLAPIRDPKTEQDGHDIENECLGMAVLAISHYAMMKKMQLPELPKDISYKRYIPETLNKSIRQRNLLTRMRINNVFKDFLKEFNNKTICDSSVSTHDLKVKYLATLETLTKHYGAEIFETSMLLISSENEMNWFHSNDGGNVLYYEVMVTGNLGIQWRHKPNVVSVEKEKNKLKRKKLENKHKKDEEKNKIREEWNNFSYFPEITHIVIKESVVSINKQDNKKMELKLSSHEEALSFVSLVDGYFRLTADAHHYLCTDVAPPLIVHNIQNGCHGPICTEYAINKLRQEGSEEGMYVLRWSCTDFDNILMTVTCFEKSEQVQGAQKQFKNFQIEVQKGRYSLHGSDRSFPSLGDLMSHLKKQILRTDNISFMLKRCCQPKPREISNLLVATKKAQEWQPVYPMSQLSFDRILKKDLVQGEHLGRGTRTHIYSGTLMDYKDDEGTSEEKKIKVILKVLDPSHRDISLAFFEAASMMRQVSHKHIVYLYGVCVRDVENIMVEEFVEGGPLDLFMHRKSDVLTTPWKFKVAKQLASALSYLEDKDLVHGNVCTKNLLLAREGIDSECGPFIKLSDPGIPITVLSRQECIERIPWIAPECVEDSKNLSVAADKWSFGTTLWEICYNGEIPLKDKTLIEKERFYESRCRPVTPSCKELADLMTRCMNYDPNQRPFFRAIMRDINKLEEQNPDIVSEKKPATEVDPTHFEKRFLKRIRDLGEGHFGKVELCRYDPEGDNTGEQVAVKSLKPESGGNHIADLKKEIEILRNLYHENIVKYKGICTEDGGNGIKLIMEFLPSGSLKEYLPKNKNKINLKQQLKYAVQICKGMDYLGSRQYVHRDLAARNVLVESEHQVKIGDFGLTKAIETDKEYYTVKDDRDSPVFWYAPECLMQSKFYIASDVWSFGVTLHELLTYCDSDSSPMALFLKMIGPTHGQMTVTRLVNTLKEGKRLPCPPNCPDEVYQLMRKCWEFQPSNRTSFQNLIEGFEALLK
Method in brief: as §1

Caco-2 cell monolayers = assay: Caco-2 permeation assay; assay type: in vitro ADME; settings: 5 μM, A-B direction, with Verapamil (25 μM)
Method in brief: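 Passive A-to-B permeability with P-gp inhibited by verapamil (25 μM); compound at 5 μM, n=2. Both compartments sampled at t0 and t120 and quantified by LC-MS/MS, giving apparent permeability in cm/sec from flux, area and concentration.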

[1] = system: IL-2 stimulated STAT5 phosphorylation in Tall-1 human T cell line (JAK3); assay: Cellular JAK3 potency assay: inhibition of IL-2 stimulated pSTAT5 in Tall-1 T cells; assay type: cell-based; settings: IL-2 stimulated pSTAT5, Tall-1 T cells
Method in brief: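 AlphaLISA SureFire Ultra measures STAT5 Tyr694/699 phosphorylation in lysed Tall-1 human T cells. Cells were exposed to compound for 1 h at 37 °C before a 30 min IL-2 challenge (300 ng/ml final). Values are pIC50 means with standard deviation from signal-versus-concentration curves.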

JAK2 = JAK2 (Homo sapiens (Human), UniProt O60674); assay: Biochemical JAK2 kinase assay (LanthaScreen)
JAK2, sequence (O60674 whole entry): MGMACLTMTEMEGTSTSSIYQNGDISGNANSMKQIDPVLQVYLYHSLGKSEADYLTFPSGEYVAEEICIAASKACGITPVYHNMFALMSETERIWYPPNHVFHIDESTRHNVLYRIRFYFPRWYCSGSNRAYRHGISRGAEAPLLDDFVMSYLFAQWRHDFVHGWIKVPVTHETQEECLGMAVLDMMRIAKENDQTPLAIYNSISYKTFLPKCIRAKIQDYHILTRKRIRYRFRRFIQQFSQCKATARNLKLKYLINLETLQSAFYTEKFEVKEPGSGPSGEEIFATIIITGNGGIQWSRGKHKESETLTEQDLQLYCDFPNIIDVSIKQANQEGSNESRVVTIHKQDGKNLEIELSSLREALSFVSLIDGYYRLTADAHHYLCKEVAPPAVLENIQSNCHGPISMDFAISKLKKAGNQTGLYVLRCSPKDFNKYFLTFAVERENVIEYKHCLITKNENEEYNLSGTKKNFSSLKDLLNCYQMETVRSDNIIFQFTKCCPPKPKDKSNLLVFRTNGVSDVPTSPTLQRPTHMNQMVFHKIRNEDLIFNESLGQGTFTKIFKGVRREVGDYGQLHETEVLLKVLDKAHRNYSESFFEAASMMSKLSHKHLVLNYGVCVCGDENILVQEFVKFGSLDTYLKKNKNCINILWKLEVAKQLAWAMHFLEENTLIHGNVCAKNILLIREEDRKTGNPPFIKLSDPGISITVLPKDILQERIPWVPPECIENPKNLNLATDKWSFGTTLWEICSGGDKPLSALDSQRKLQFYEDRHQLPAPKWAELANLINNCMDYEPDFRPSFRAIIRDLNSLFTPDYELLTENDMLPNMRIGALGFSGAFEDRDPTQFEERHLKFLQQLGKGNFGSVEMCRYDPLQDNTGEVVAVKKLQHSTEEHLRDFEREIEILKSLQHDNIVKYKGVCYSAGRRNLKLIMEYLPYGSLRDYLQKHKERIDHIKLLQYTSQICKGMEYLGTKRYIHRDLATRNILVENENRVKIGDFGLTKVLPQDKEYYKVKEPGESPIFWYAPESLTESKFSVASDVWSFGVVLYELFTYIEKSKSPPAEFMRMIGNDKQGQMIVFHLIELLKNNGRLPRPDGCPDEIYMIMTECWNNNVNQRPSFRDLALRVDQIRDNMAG
Method in brief: as §1

JAK3 = JAK3 (Homo sapiens (Human), UniProt P52333); assay: Biochemical JAK3 kinase assay (LanthaScreen); settings: for JAK3 (pKi)-JAK1 (pKi): selectivity JAK3 over JAK1, difference of pKi
JAK3, sequence (P52333 whole entry): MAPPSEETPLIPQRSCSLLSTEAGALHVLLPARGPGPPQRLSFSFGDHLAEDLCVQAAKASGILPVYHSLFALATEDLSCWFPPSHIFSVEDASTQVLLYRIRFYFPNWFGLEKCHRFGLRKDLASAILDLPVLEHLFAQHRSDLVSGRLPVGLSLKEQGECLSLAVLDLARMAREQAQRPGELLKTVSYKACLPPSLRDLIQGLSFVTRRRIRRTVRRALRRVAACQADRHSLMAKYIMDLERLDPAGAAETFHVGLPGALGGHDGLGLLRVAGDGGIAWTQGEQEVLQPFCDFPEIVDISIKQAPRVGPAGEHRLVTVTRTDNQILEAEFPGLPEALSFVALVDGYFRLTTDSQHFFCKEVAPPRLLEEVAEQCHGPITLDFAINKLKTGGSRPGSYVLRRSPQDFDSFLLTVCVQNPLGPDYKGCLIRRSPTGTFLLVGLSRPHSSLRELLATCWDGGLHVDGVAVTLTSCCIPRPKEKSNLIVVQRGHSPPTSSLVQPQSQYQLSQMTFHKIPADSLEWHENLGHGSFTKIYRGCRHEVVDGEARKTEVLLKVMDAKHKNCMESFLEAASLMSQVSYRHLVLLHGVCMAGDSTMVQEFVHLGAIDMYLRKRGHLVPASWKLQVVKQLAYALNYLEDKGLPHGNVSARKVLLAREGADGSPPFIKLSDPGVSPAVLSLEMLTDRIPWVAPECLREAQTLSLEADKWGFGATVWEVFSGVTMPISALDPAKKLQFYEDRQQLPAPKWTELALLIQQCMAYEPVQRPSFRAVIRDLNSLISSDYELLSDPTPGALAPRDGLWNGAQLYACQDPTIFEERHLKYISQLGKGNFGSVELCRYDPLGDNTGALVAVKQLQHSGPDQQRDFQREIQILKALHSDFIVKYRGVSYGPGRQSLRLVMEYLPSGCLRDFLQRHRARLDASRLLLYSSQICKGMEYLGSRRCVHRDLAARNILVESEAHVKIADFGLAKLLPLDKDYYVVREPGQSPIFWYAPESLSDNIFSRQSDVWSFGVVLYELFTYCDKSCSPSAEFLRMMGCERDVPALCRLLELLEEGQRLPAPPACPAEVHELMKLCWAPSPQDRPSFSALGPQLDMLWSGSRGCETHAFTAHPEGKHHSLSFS
Method in brief: as §1

Tyk2, sequence (P29597 whole entry): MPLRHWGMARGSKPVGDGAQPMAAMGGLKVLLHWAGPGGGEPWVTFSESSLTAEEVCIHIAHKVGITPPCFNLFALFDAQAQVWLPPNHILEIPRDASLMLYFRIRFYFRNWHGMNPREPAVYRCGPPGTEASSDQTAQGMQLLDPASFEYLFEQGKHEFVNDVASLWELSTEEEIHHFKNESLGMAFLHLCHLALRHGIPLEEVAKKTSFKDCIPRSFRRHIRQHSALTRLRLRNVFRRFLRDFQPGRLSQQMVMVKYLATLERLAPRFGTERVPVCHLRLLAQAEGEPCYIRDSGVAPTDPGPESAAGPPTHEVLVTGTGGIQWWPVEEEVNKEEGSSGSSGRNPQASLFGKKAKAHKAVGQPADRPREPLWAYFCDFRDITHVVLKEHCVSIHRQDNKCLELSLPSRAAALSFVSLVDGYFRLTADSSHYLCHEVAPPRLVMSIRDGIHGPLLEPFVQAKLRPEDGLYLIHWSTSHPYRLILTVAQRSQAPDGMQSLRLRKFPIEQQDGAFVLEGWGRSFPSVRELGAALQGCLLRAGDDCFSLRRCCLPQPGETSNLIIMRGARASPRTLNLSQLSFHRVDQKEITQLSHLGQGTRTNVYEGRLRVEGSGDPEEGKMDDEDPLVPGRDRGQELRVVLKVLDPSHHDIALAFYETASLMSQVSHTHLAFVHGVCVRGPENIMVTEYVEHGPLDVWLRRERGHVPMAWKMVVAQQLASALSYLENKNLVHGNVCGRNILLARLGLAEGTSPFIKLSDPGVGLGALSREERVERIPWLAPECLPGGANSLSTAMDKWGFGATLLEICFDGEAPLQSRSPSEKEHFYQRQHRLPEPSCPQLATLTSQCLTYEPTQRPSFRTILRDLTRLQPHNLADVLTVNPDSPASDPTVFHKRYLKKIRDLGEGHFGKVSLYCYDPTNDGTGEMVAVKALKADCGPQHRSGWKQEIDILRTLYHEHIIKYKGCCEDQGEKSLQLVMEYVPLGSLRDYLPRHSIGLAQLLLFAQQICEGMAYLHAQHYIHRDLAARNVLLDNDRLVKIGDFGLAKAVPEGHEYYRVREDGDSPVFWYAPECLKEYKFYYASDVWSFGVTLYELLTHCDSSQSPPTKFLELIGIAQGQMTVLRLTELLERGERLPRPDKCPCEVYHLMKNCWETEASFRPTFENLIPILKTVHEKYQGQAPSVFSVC

Row | SMILES | Tyk 2 (pKi) (Tyk2) | JAK 1 (pKi) (JAK1) | Caco Kp (Caco-2 cell monolayers) | Tall-1 (pIC50) [1] | JAK 2 (pKi) (JAK2) | JAK 3 (pKi) (JAK3) | JAK3 (pKi)-JAK1 (pKi) (JAK3)
1 | C=CC(=O)N1CC(CCn2c(=O)ccc3cnc(Nc4ccc(N5CCN(C(=O)[C@@H](C)O)CC5)cc4)nc32)C1 [Example 105] | E (E represents a pKi value of 7 or below (Ki of 100 nM or above)) | E (E represents a pKi value of 7 or below (Ki of 100 nM or above)) | A (A represents a value below 5×10^−6 cm/sec) | B (B represents a pC50 value between 6.7 (included) and 7.5 (IC50 between 200 nM and 32 nM)) | E (E represents a pKi value of 7 or below (Ki of 100 nM or above)) | A (A represents a pKi value≥10 (Ki≤0.1 nM)) | A (A represents a value of 3 or above)
2 | C=CC(=O)N1CCN(CCn2c(=O)ccc3cnc(Nc4ccc(N5CCN(S(C)(=O)=O)CC5)cc4)nc32)CC1 [Example 130] | E (E represents a pKi value of 7 or below (Ki of 100 nM or above)) | E (E represents a pKi value of 7 or below (Ki of 100 nM or above)) | A (A represents a value below 5×10^−6 cm/sec) | B (B represents a pC50 value between 6.7 (included) and 7.5 (IC50 between 200 nM and 32 nM)) | E (E represents a pKi value of 7 or below (Ki of 100 nM or above)) | B (B represents pKi value between 9 and 10 (Ki between 1 nM and 0.1 nM)) | A (A represents a value of 3 or above)
3 | C=CC(=O)N1CC(CCn2c(=O)ccc3cnc(Nc4cccc(N5CCN(C(=O)COC)CC5)c4)nc32)C1 [Example 108] | E (E represents a pKi value of 7 or below (Ki of 100 nM or above)) | E (E represents a pKi value of 7 or below (Ki of 100 nM or above)) | A (A represents a value below 5×10^−6 cm/sec) | B (B represents a pC50 value between 6.7 (included) and 7.5 (IC50 between 200 nM and 32 nM)) | E (E represents a pKi value of 7 or below (Ki of 100 nM or above)) | B (B represents pKi value between 9 and 10 (Ki between 1 nM and 0.1 nM)) | A (A represents a value of 3 or above)
4 | C=CC(=O)N1CCN(CCn2c(=O)ccc3cnc(Nc4ccc(N5CCN(C)CC5)cc4)nc32)[C@@H](CO)C1 [Example 193] | E (E represents a pKi value of 7 or below (Ki of 100 nM or above)) | E (E represents a pKi value of 7 or below (Ki of 100 nM or above)) | A (A represents a value below 5×10^−6 cm/sec) | B (B represents a pC50 value between 6.7 (included) and 7.5 (IC50 between 200 nM and 32 nM)) | E (E represents a pKi value of 7 or below (Ki of 100 nM or above)) | B (B represents pKi value between 9 and 10 (Ki between 1 nM and 0.1 nM)) | A (A represents a value of 3 or above)
5 | C=CC(=O)N1CCN(CCn2c(=O)ccc3cnc(Nc4ccc(N5CCN(C(=O)C[S+]([O-])CC)CC5)cc4)nc32)[C@@H](CC)C1 (stereo partly shown) [Example 198] | E (E represents a pKi value of 7 or below (Ki of 100 nM or above)) | E (E represents a pKi value of 7 or below (Ki of 100 nM or above)) | A (A represents a value below 5×10^−6 cm/sec) | C (C represents a pIC50 value between 6 and 6.7 (IC50 between 1 μM and 200 nM)) | E (E represents a pKi value of 7 or below (Ki of 100 nM or above)) | B (B represents pKi value between 9 and 10 (Ki between 1 nM and 0.1 nM)) | A (A represents a value of 3 or above)
6 | C=CC(=O)N1CC(CCn2c(=O)ccc3cnc(Nc4cnn(CCN(CC)CC)c4)nc32)C1 [Example 55] | E (E represents a pKi value of 7 or below (Ki of 100 nM or above)) | E (E represents a pKi value of 7 or below (Ki of 100 nM or above)) | A (A represents a value below 5×10^−6 cm/sec) | B (B represents a pC50 value between 6.7 (included) and 7.5 (IC50 between 200 nM and 32 nM)) | E (E represents a pKi value of 7 or below (Ki of 100 nM or above)) | B (B represents pKi value between 9 and 10 (Ki between 1 nM and 0.1 nM)) | A (A represents a value of 3 or above)
7 | C=CC(=O)N1CC(CCn2c(=O)ccc3cnc(Nc4ccc(N5CCN(S(=O)(=O)NC)CC5)cc4)nc32)C1 [Example 96] | E (E represents a pKi value of 7 or below (Ki of 100 nM or above)) | E (E represents a pKi value of 7 or below (Ki of 100 nM or above)) | A (A represents a value below 5×10^−6 cm/sec) | B (B represents a pC50 value between 6.7 (included) and 7.5 (IC50 between 200 nM and 32 nM)) | E (E represents a pKi value of 7 or below (Ki of 100 nM or above)) | A (A represents a pKi value≥10 (Ki≤0.1 nM)) | A (A represents a value of 3 or above)
